Reference: US20040014676A1, “SRC kinase inhibitors useful for treating osteoporosis” (priority 2001, published 2004)

These compounds were tested against T1, Src kinase (Homo sapiens, UniProt P12931) (assay: Phosphorylation assay of Src kinase inhibitors (radiometric, 96 well filter plate)). Details: duplicates, tested in the range of 400-0.098 µM; 10 µM peptide substrate (FIYGAFKKKKNH2), 5 µM unlabeled ATP, room temperature 30 min; read-out: IC50.
T1 construct: purchased Upstate Bioteolnology (sic; Upstate Biotechnology); later HMR stock 27597-019E1 #14-117
T1 sequence (P12931 whole entry): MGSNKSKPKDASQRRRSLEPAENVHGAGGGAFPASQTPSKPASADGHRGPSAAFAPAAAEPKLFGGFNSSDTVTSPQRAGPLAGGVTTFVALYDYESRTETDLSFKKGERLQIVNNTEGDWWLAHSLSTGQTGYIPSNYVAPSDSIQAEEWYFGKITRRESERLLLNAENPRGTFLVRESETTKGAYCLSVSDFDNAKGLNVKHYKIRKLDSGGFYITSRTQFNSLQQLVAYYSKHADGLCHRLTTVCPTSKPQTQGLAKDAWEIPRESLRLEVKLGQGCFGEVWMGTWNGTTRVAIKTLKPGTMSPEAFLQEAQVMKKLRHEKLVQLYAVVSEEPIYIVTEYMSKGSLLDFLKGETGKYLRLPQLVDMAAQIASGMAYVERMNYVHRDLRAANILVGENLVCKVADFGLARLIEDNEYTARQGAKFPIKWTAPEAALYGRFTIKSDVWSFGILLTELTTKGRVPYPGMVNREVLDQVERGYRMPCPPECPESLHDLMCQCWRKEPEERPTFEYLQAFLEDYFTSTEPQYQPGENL
Assay type: biochemical
Method in brief: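 Radiometric filter-plate assay: Src kinase (1:100 dilution) was incubated with 10 μM peptide FIYGAFKKK-NH2, 5 μM unlabeled ATP and radiolabeled ATP for 30 min at room temperature. Reactions were stopped with 150 mM H3PO4, the peptide was captured on phosphocellulose and scintillation counted. Ki values were determined for some compounds.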
Compound `NC(=O)CNC(=O)c1cc2ccccc2cc1OCCCC(NC(=O)[C@H](N)Cc1csc2ccccc12)C(=O)O` (stereo partly drawn) [Example 97, 3-[[4-[[1-OXO-2(S)-AMINO-3-(BENZO- THIOPHEN-3-YL)]PROPYL]AMINO][4- CARBOXY]BUTOXY]NAPHTHALENE-2- (N-ACETAMIDO)CARBOXAMIDE] has an IC50 of 26 µM. `C=CCOC(=O)C(CCCOc1cc2ccccc2cc1C(=O)NCC(N)=O)NC(=O)[C@H](N)Cc1csc2ccccc12` (stereo partly drawn) [Example 98, 3-[[4-[[1-OXO-2(S)-AMINO-3-(BENZO- THIOPHEN-3-YL)]PROPYL]AMINO][4- ACRYLOXYCARBOXY]BUTOXY]NAPHTHALENE-2-(N-ACETAMIDO)- CARBOXAMIDE] showed an IC50 of 2.5 µM. Work on `N[C@@H](Cc1ccc(O)cc1)C(=O)NCCCCOc1cc2ccccc2cc1C(=O)NCC(=O)NCCCO` [Example 99, 3-[[4-[[1-OXO-2(S)-AMINO-3-(4- HYDROXYPHENYL)]PROPYL]AMINO]- BUTOXY]NAPHTHALENE-2-[N-[[[[3- HYDROXYPROPYL]AMINO]- CARBONYL]METHYL]]CARBOXAMIDE] yielded an IC50 of 0.49 µM. In the case of `N[C@@H](Cc1ccc(O)cc1)C(=O)NCCCCOc1cc2ccccc2cc1C(=O)NCCO` [Example 101, 3-[[4-[[1-OXO-2(S)-AMINO-3-(4- HYDROXYPHENYL)]PROPYL]AMINO]- BUTOXY]NAPHTHALENE-2-[N- (2-HYDROXYETHYL)]CARBOXAMIDE], the IC50 is reported as 15 µM. Compound `NC(=O)CCNC(=O)c1cc2ccccc2cc1OCCCCNC(=O)[C@@H](N)Cc1ccc(O)cc1` [Example 102] has an IC50 of 52 µM. `NC(=O)CNC(=O)c1cc2cc(Br)ccc2c(Br)c1OCCCCNC(=O)[C@@H](N)Cc1ccc(O)cc1` [Example 105, 1,6-DIBROMO-2-[[4-[[1-OXO-2(S)- AMINO-3-(4-HYDROXYPHENYL)]- PROPYL]AMINO]BUTOXY]- NAPHTHALENE-3-(N-ACETAMIDO)- CARBOXAMIDE] showed an IC50 of 20 µM. With `COc1ccc2cc(OCCCCNC(=O)[C@@H](N)Cc3ccc(O)cc3)c(C(=O)NCC(N)=O)cc2c1` [Example 106, 3-[[4-[[2(S)-AMINO-3-(4-HYDROXY- PHENYL)-1-OXOPROPYL]AMINO]- BUTOXY]-7-METHOXY- NAPHTHALENE-2-[N-ACETAMIDO]- CARBOXAMIDE] the IC50 was 2.5 µM. Work on `N[C@@H](Cc1ccc(O)cc1)C(=O)NCCCCOc1ccc2ccccc2c1C(=O)NCC(=O)NCCCO` [Example 117, 2-[[4-[[1-OXO-2(S)-AMINO-3-(4- HYDROXYPHENYL)]PROPYL]AMINO]BUTOXY]NAPHTHALENE-1-[N-[[(3- HYDROXYPROPYLAMINO)- CARBONYL]METHYL]]CARBOXAMIDE] yielded an IC50 of 47 µM. `NC(=O)CNC(=O)c1cc2ccccc2cc1OCc1ccc(N)cc1` [Example 119, 2-[4-AMINOBENZYLOXY]- NAPHTHALENE-3-[N-ACETAMIDO]- CARBOXAMIDE] showed an IC50 of 25 µM. Work on `CNC(=O)C(Cc1ccc(C#N)cc1)C(=O)NCCCCOc1cc2ccccc2cc1C(=O)NCC(N)=O` (centres unmarked) [Example 124, N-(4-{3-[N-(carbamoylmethyl)carbamoyl](2-naphthyloxy)}butyl)-2RS-[(4-cyanophenyl)methyl]-N′-methylpropane-1,3-diamide] yielded an IC50 of 6 µM. Work on `NC(=O)CNC(=O)c1cc2ccccc2cc1/N=C(/OCCCCNC(=O)C(N)Cc1ccc(O)cc1)C(F)(F)F` (centres unmarked) [Example 127, 3-[[1-TRIFLUOROMETHYL][1-[4-[[[1- OXO-2-AMINO-3-HYDROXYPHENYL)]- PROPYL]AMINO]BUTOXY]]- METHYLENIMINO]-NAPHTHALENE-2- [N-ACETAMIDO]CARBOXAMIDE] yielded an IC50 of 19 µM. With `CNC(=O)[C@@H](Cc1ccc(C(=O)OC)cc1)C(=O)NCCCCOc1cc2ccccc2cc1C(=O)NCC(N)=O` [Example 147, 3-[[4-[N-[1-OXO-2-(N-METHYLAMINO- CARBONYL)-3-[(4-(METHOXY- CARBONYL)PHENYL]]PROPYL]- AMINO]BUTOXY]-NAPHTHALENE-2- (N-ACETAMIDO)CARBOXAMIDE] the IC50 was 18 µM. Work on `CNC(=O)[C@@H](Cc1cccc(C(=O)OC)c1)C(=O)NCCCCOc1cc2ccccc2cc1C(=O)NCC(N)=O` [Example 148, 3-[[4-[N-[1-OXO-2-(N-METHYLAMINO- CARBONYL)-3-[(3-(METHOXY- CARBONYL)PHENYL]]PROPYL]- AMINO]BUTOXY]-NAPHTHALENE-2- (N-ACETAMIDO)CARBOXAMIDE] yielded an IC50 of 203 µM. `N#C/C(=C\c1ccc(O)cc1)C(=O)NCCCCOc1cc2ccccc2cc1C(=O)NCC(N)=O` [Example 149, 3-[[4-[N-[1-OXO-2-(CYANO)-3-(4- HYDROXYPHENYL)]PROPEN-2-YL]- AMINO] BUTOXY]-NAPHTHALENE-2- [N-ACETAMIDO]CARBOXAMIDE] was tested, and the IC50 was 27 µM. With `NC(=O)CNC(=O)c1cc2ccccc2cc1OCCCCNC(=O)C(=C/c1ccc(O)cc1)/C(N)=N/O` [Example 150, 3-[[4-[N-[1-OXO-2-[(HYDROXYIMINO)- (AMINO)METHYL]-3-(4-HYDROXY- PHENYL)]]PROP-2-ENYL]AMINO]- BUTOXY]-NAPHTHALENE-2-(N- ACETAMIDO)CARBOXAMIDE] the IC50 was 16 µM. For `CN(CCCCOc1cc2ccccc2cc1C(=O)NCC(N)=O)C(=O)C(N)Cc1csc2ccccc12` (centres unmarked) [Example 153, 3-[[[4-[3-(BENZOTHIOPHEN-3-YL)-2- AMINO-1-OXO]PROPYL](N-METHYL)- AMINO]BUTOXY]-NAPHTHALENE-2- (N-ACETAMIDO)CARBOXAMIDE], the IC50 was 0.33 µM. Work on `CCNC(=O)CNC(=O)c1cc2ccccc2cc1OCCCCN(C)C(=O)C(N)Cc1csc2ccccc12` (centres unmarked) [Example 154, 3-[[[4-[3-(BENZOTHIOPHEN-3-YL)-2- AMINO-1-OXO]PROPYL](N-METHYL)- AMINO]BUTOXY]-NAPHTHALENE-2- [(N-(N-ETHYL)ACETAMIDO]- CARBOXAMIDE] yielded an IC50 of 4 µM.
